Measurements: patent US12398115B2, “Chrysophaentin analogs and use thereof” (Vanderbilt University, priority 2019, dated 2025)
Values after ≈ are worked out from the molar mass of the structure shown. “Also recorded” adds a separate entry of the source. Where two headings read alike, the source gives them in different places.

Key:
[1] = test system: B. subtilis (PY79 WT) peptidoglycan synthesis; assay: HADA (FDAA) incorporation microscopy assay, peptidoglycan synthesis; format: cell-based, Bacillus subtilis; settings: for inhibition of peptidoglycan synthesis (FDAA incorporation): B. subtilis, FIGS. 7B and 7C
Method: HADA was synthesized according to the reported protocols. Exponentially growing B. subtilis (PY79 WT) cells for the experiments were prepared as described above. […] After a 5-minute incubation at 37° C., HADA stock solution (100 mM) was directly added to the cultures to a final concentration of 0.5 mM. The cultures were then incubated in a 37° C. shaker for 30 minutes. Cell fixation was then carried out by directly adding 0.7 ml 100% ethanol to the cultures, following 1-hour incubation on ice-bath. The fixed cells were collected using centrifuge (9000 g, 3 minutes), washed with 1×PBS twice, and then resuspended into 1×PBS. The cells were imaged using Nikon Ti-E microscope. HADA signal was detected using DAPI filter set (Excitation 395/25 nm; emission 435/26 nm). HADA intensity was analyzed using ImageJ and MicrobeJ plug-in.

[2] = test system: Bacillus subtilis (PY79 WT); assay: Cell lengthening assay; format: cell-based; settings: for cell lengthening: B. Subtilis; for cell lengthening phenotype: B. subtilis, FIG. 7A, concentration not given
Method: Bacillus subtilis (PY79 WT, lab stock) were inoculated from an overnight plate culture (single colony) to 3 ml LB in 15 ml culture tubes. The cultures were incubated in a 37° C. shaker until OD600 reached 0.2. The cultures were then diluted with fresh LB to OD600 0.05, followed by another round of incubation to OD600 0.2. At this point, cells have reached exponentially growing states and were used for experiments. […] The cultures were incubated at a 37° C. shaker for 40 minutes, followed by direct addition of 0.7 ml 100% ethanol (70% final ethanol concentration) and then incubation on ice-bath for 1 hour. The fixed cells were imaged using a Nikon Ti-E inverted microscope equipped with a 1.4NA Plan Apo 60X oil objective and Andor iXon EMCCD camera. Cell images were captured under phase-to-contrast channel. Cell length was analyzed using ImageJ and MicrobeJ plug-in.

[3] = test system: FtsZ/FtsA/PBP2B localization in B. subtilis; assay: Imaging of fluorescently labeled FtsZ, FtsA and PBP2B (mNeonGreen); format: cell-based, Bacillus subtilis; settings: for localization of FtsZ: B. Subtilis, concentration not given; for localization of FtsZ, FtsA and PBP2B: B. subtilis, FIG. 7D; for localization of fluorescently labeled FtsZ (mNeonG): 10 μM (5×MIC), high-resolution microscopy
Method: B. subtilis strains with fluorescent protein fusion were made (FtsZ-mNeonGreen: bAB185, FtsA-mNeonGreen: bAB167, PBP2B-mNeonGreen: bAB109). Exponentially growing cells for the experiments were prepared as described above. Antibiotic stock solutions were added to 0.3 ml exponentially growing cell cultures to a final concentration of 5×MIC. The cells were incubated at 37° C. for 5 minutes and then immediately imaged using the Ti-E microscope without fixation. mNeonGreen signal was detected using FITC filter set (Excitation 470/24 nm; emission 510/40 nm). Image processing was performed in ImageJ. Images were scaled without interpolation, cropped and rotated. Linear adjustment was performed to optimize contrast and brightness of the images. All the images from the same experiment were processed in the same way in order to ensure fair comparison.

[4] = test system: S. aureus ATCC 25293; assay: Microbroth dilution growth inhibition; format: cell-based; settings: Staphylococcus aureus, ATCC25293; S. aureus ATCC 25293, microbroth dilution
Method: (§1) VU0848355 and VU0848354 were evaluated for growth inhibition against S. aureus and inhibition of GTPase activity against S. aureus FtsZ using a biochemical assay (FIGS. 6A-6C).

[5] = target: T1, S. aureus FtsZ (Staphylococcus aureus, UniProt P0A031); assay: Biochemical GTPase-FtsZ inhibition assay
T1 sequence (P0A031 1-390): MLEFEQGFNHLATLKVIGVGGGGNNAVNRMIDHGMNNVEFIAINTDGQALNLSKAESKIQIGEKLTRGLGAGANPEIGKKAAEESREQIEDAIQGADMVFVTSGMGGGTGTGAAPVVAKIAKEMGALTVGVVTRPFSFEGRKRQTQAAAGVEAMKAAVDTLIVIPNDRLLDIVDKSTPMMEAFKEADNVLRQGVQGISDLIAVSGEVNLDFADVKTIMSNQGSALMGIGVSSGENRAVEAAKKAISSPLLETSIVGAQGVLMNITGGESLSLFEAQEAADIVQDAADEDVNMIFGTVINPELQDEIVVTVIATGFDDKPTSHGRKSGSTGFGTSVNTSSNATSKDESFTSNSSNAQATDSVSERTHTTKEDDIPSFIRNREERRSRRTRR
Method: as §1

[6] = test system: B. Subtilis; assay: Time-lapse microscopy of FtsZ motion; format: cell-based, Bacillus subtilis; settings: 5×MIC
Method: Time-lapse microscopy was employed to monitor the dynamics of FtsZ motion before and after treatment by these compounds. FtsZ movement drives the septal peptidoglycan synthesis machinery in B. subtilis. The movement is carried out by a “treadmilling process” where FtsZ monomer polymerizes at one end and disassembles at the other. FtsZ polymerization is triggered by binding to GTP while its disassembly is catalyzed by GTP hydrolysis to GDP.

[7] = test system: S. aureus ATCC 25293; assay: Agar diffusion assay; format: cell-based, Staphylococcus aureus
Method: as §1

[8] = test system: Gram-positive pathogens; assay: Comparison of bacterial growth inhibition across panel; format: cell-based; settings: for potency in inhibiting bacterial growth relative to natural C-ring isomers VU0849855 and VU0848355: FIGS. 5A-5C
Method: (§2) MICs for all compounds were determined using the CLSI guidelines on the test strains. Solutions of each compound were prepared by dissolution in DMSO (Sigma Aldrich, St. Louis MO) at a concentration of 10-20 mg mL^−1. […] Stock solutions were added to Mueller-Hinton II broth and serial two-fold dilutions were prepared in a 96-well microtiter plate (50 μL per well). Fifty microliters (50 μL) of inoculum containing 1×10^6 CFU mL^−1 for E. coli, S. aureus, or MRSA, or 2×10^6 CFU mL^−1 for E. faecalis or VRE were added to the wells. Plates were covered with a sterile membrane, placed in a plate reader, and agitated for 2 min to mix the contents of the wells. Plates were incubated at 37° C. for 16 h. Wells containing 4% DMSO or gentamycin served as negative and positive controls. […] Each assay was performed in triplicate and two independent experiments were carried out on separate days.
The bacterial growth inhibition of synthetic 9-dechlorochrysophaentins compared favorably to chrysophaentin A when evaluated across a panel of Gram-positive pathogens (Table 1).

[9] = test system: S. aureus (ATCC 25913); assay: Minimum inhibitory concentration, broth microdilution (CLSI); format: cell-based, Staphylococcus aureus; settings: for MIC50: Staphylococcus aureus, ATCC25913
Text: (§3) Chemicals-FtsZ inhibitor PC190723 and ampicllin were purchased from Millipore Sigma Aldrich (St. Louis, MO). Chrysophaentin A was obtained from a 2017 collection of the marine alga C. taylorii collected in the U.S. Virgin Islands (Permit VIIS-2017-SCI-0034) and isolated as described previously. All bacterial strains used for drug susceptibility testing were obtained from the American Type Culture Collection (Manassas, VA) and included Escherichia coli (ATCC 25922), Enterococcus faecalis (ATCC 29212), vancomycin-resistant E. faecalis (VRE, ATCC 51299), Staphylococcus aureus (ATCC 25913), and methicillin-resistant S. aureus (MRSA, ATCC 43300). Strains were maintained on agar slants at 4° C. and sub-cultured on fresh agar plates containing ATCC-recommended media. Strains were cultured in liquid media 16 h prior to any antimicrobial screen. BD BBL™ Mueller-Hinton II broth (Fisher Scientific, Hampton NH) was used for MIC determinations.
as §2

[10] = test system: MRSA, methicillin-resistant S. aureus (ATCC 43300); assay: as above; format: cell-based, Staphylococcus aureus; settings: for MIC50: Staphylococcus aureus
Text: as §3, §2

[11] = test system: B. Subtilis; assay: Minimum inhibitory concentration; format: cell-based; settings: Bacillus subtilis; read-out: MIC50 B. Subtifis
[12] = test system: VRE, vancomycin-resistant E. faecalis (ATCC 51299); assay: Minimum inhibitory concentration, broth microdilution (CLSI); format: cell-based, Enterococcus faecalis; settings: for MIC50: Enterococcus
Text: as §3, §2

[13] = test system: Enterococcus faecalis (ATCC 29212); assay: as above; format: cell-based; settings: for MIC50: Enterococcus faecalis, ATCC29212, read-out: MIC50 E. Faecalis
Text: as §3, §2

[14] = test system: gram-positive bacteria, such as MRSA; settings: against gram-positive bacteria; cited from earlier work

CC1(C)S[C@@H]2[C@H](NC(=O)[C@H](N)c3ccccc3)C(=O)N2[C@H]1C(=O)O [Ampicillin, ampicillin, reference compound]
inhibition of peptidoglycan synthesis (FDAA incorporation) [1]: inhibit peptidoglycan synthesis

NC(=O)c1c(F)ccc(OCc2nc3cc(Cl)cnc3s2)c1F [PC190723, reference compound]
cell lengthening ([2]; 5 μg/mL (10×MIC)): Cell lengthening was observed | cell lengthening phenotype [2]: produces the expected cell lengthening phenotype | cell lengthening phenotype ([2]; listed as PC1907723): leads to expected cell lengthening | localization of FtsZ [3]: dislocation but retention of FtsZ | inhibition of peptidoglycan synthesis (FDAA incorporation) [1]: does not | inhibition of FDAA incorporation ([1]; up to 10×MIC): minimal inhibition of FDAAs incorporation

COc1cc2cc(OC)c1Oc1cc(c(O)cc1Cl)C/C=C\Cc1cc(O)cc(O)c1Oc1ccc(O)c(c1Cl)C/C=C(/Cl)C2 [VU0848354]
IC50 [4]: < 1 µM | cell lengthening phenotype [2]: neither VU0848355 and VU0848354 replicates the cell lengthening phenotype | IC50 ([5]; S. aureus FtsZ biochemical assay, read-out: IC50 GTPase-FtsZ inhibition): > 250 µM | cell elongation [6]: did not elongate | localization of FtsZ, FtsA and PBP2B [3]: displace FtsZ/A and penicillin binding protein PBP2B; also recorded: unique dispersion of FtsZ, FtsA and PBP2B | growth inhibition, agar diffusion [7]: inhibited growth of S. aureus | inhibition of peptidoglycan synthesis (FDAA incorporation) [1]: inhibit peptidoglycan synthesis; also recorded: inhibited both lateral and septal peptidoglycan synthesis | potency in inhibiting bacterial growth relative to natural C-ring isomers VU0849855 and VU0848355 [8]: approximately two-fold

COc1cc2cc(OC)c1Oc1cc(c(O)cc1Cl)C/C=C\Cc1cc(O)cc(O)c1Oc1cc(c(O)cc1Cl)C/C=C(/Cl)C2 [VU0848355]
IC50 [4]: < 1 µM | cell lengthening phenotype [2]: neither VU0848355 and VU0848354 replicates the cell lengthening phenotype | IC50 [5]: > 250 µM | localization of FtsZ, FtsA and PBP2B [3]: displace FtsZ/A and penicillin binding protein PBP2B; also recorded: unique dispersion of FtsZ, FtsA and PBP2B | growth inhibition, agar diffusion [7]: inhibited growth of S. aureus | inhibition of peptidoglycan synthesis (FDAA incorporation) [1]: inhibit peptidoglycan synthesis; also recorded: inhibited both lateral and septal peptidoglycan synthesis

Oc1cc(O)c2c(c1)C/C=C\Cc1cc(c(Cl)cc1O)Oc1c(O)cc(cc1O)C/C(Cl)=C\Cc1c(O)ccc(c1Cl)O2 [VU0849838, iso-9-dechlorochrysophaentin A]
MIC50 [9]: 1.1 µg/mL (≈ 1.71 µM) | MIC50 [10]: 1.1 µg/mL (≈ 1.71 µM) | cell lengthening ([2]; up to 20 μM (10×MIC)): did not affect cell lengthening | MIC50 [11]: 2 µg/mL (≈ 3.11 µM) | localization of fluorescently labeled FtsZ (mNeonG) [3]: complete disassociation of FtsZ | localization of FtsZ [3]: lead to dislocation of FtsZ | inhibition of FDAA incorporation ([1]; 10 μM (5×MIC)): inhibited incorporation of FDAAs | potency in inhibiting bacterial growth relative to natural C-ring isomers VU0849855 and VU0848355 [8]: approximately two-fold | growth inhibition (MIC) relative to natural chrysophaentin A ([8]; S. aureus, MRSA and E. faecalis): approximately two-fold | MIC50 [12]: 2.2 µg/mL (≈ 3.42 µM) | MIC50 [13]: 0.3 µg/mL (≈ 0.466 µM)

Oc1cc(O)c2c(c1)C/C=C\Cc1cc(c(Cl)cc1O)Oc1c(O)cc(cc1O)C/C(Cl)=C\Cc1cc(c(Cl)cc1O)O2 [VU0849855, 9-dechlorochrysophaentin A]
MIC50 [9]: 2.5 µg/mL (≈ 3.88 µM) | MIC50 [10]: 2.5 µg/mL (≈ 3.88 µM) | cell lengthening ([2]; up to 20 μM (10×MIC)): did not affect cell lengthening | MIC50 [11]: 4 µg/mL (≈ 6.21 µM) | localization of fluorescently labeled FtsZ (mNeonG) [3]: complete disassociation of FtsZ | localization of FtsZ [3]: lead to dislocation of FtsZ | inhibition of FDAA incorporation ([1]; 10 μM (5×MIC)): inhibited incorporation of FDAAs | MIC50 [12]: 5 µg/mL (≈ 7.77 µM) | MIC50 [13]: 2.5 µg/mL (≈ 3.88 µM)

chrysophaentin A [reference compound]
MIC50 S. Aureus [9]: 2 µg/mL | MIC50 MRSA [10]: 2 µg/mL | localization of FtsZ [3]: leads to dispersion of FtsZ; also recorded: replicated the FtsZ dispersion phenotype | localization of FtsZ, FtsA and PBP2B [3]: led to dispersion of the septal peptidoglycan synthesis machinery | MIC50 [14]: 1 to 4 µM | MIC50 VRE [12]: 2 µg/mL | MIC50 E. Faecalis [13]: 2 µg/mL
